From US20230017532A1 (Hoffmann-La Roche Inc., priority 2018, published 2023)
Counter-ions that a name gives are not always drawn.

Tested on: Acinetobacter baumannii ATCC17978
Experiment: Antimicrobial susceptibility testing: 90% growth inhibitory concentration (IC90) determination, Iso-Sensitest broth, OD 600 nm
Type: cell-based
Conditions: 90% growth inhibitory concentration, Acinetobacter baumannii ATCC17978, Iso-Sensitest broth, OD 600 nm over 16 h; read-out: ATCC 17978 IC90
How it was run: (§1)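 Twofold serial dilutions (e.g. 50–0.097 μM final) incubated with ~5×10^5 CFU/ml in Iso-Sensitest broth at 35±2 °C. OD600 read every 20 min for 16 h; IC90 derived from growth inhibition during logarithmic phase.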

IC90 [µM] | Compound
0.66 | CCc1cc(Nc2nccn3c(-c4ccc(OC)c(F)c4F)cnc23)ccc1C(=O)NCCNCCN [Example 186, N-[2-(2-aminoethyl-amino)ethyl]-4-[[3-(2,3-difluoro-4-methoxyphenyl)imidazo[1,2-a]pyrazin-8-yl]amino]-2-ethyl-benzamide;2,2,2-trifluoroacetic acid]

Same assay, conditions: Acinetobacter baumannii, ATCC17978, 16 h, 90% growth inhibitory concentration, Acinetobacter baumannii ATCC17978, Iso-Sensitest broth, OD 600 nm over 16 h; read-out: ATCC 17978 IC90

Compound | IC90 [µM]
CCc1cc(Nc2nccn3c(-c4ccc(OC(F)F)c(F)c4F)cnc23)ccc1C(=O)NCCNCCN [Example 170, N-[2-(2-aminoethylamino)ethyl]-4-[[3-[4-(difluoro-methoxy)-2,3-difluorophenyl]imidazo[1,2-a]pyrazin-8-yl]amino]-2-ethylbenzamide; hydrochloride] | 0.28
COc1ccc(-c2cnc3c(Nc4ccc(C(=O)NCCOCCN)c(CC(F)F)c4)nccn23)cc1F [Example 173, N-[2-(2-aminoethoxy)ethyl]-2-(2,2-difluoroethyl)-4-[[3-(3-fluoro-4-methoxyphenyl)imidazo[1,2-a]pyrazin-8-yl]amino] benzamide; formic acid] | 0.37
CCc1cc(Nc2nccn3c(-c4ccc(OC(F)F)c(F)c4F)cnc23)ccc1C(=O)NCCNCCO [Example 174, 4-[[3-[4-(difluoromethoxy)-2,3-difluorophenyl]imidazo[1,2-a]pyrazin-8-yl]amino]-2-ethyl-N-[2-(2-hydroxy-ethylamino)ethyl]benzamide; hydrochloride] | 0.59
CCc1cc(Nc2nccn3c(-c4ccc(OC)c(F)c4F)cnc23)ccc1C(=O)NCCCNCC[C@H](N)C(=O)O [Example 183, (2S)-2-amino-4-[3-[[4-[[3-(2,3-difluoro-4-methoxyphenyl)imidazo[1,2-a]pyrazin-8-yl]amino]-2-ethyl-benzoyl]amino]propylamino] butanoic acid; formic acid] | 0.66
CCc1cc(Nc2nccn3c(-c4ccc(OC)c(F)c4F)cnc23)ccc1C(=O)NCCCNCCCN [Example 184, N-[3-(3-aminopropyl-amino)propyl]-4-[[3-(2,3-difluoro-4-methoxyphenyl)imidazo[1,2-a]pyrazin-8-yl]amino]-2-ethyl-benzamide;2,2,2-trifluoroacetic acid] | 0.59
CCc1cc(Nc2nccn3c(-c4ccc(OC)c(F)c4F)cnc23)ccc1C(=O)NCCCNCCN [Example 185, N-[3-(2-aminoethyl-amino)propyl]-4-[[3-(2,3-difluoro-4-methoxyphenyl)imidazo[1,2-a]pyrazin-8-yl]amino]-2-ethylbenzamide; 2,2,2-trifluoro-acetic acid] | 0.59
CCc1cc(Nc2nccn3c(-c4ccc(OC)c(F)c4F)cnc23)ccc1C(=O)NCCNCCCN [Example 188, N-[2-(3-amino-propylamino)ethyl]-4-[[3-(2,3-difluoro-4-methoxyphenyl)imidazo[1,2-a]pyrazin-8-y]amino]-2-ethylbenzamide; formic acid] | 1.2
CCc1cc(Nc2nccn3c(-c4ccc(Cl)c(F)c4F)cnc23)ccc1C(=O)NCCCNC [Example 192, 4-[[3-(4-chloro-2,3-difluorophenyl)imidazo[1,2-a]pyrazin-8-yl]amino]-2-ethyl-N-[3-(methyl-amino)propyl] benzamide; hydrochloride] | 1.6
CCc1cc(Nc2nccn3c(-c4ccc(OC(F)F)c(F)c4F)cnc23)ccc1C(=O)NCCCNCCO [Example 193, 4-((3-(4-(difluoro-methoxy)-2,3-difluorophenyl)imidazo[1,2-a]pyrazin-8-yl)amino)-2-ethyl-N-(3-((2-hydroxyethyl)amino)propyl) benzamide] | 0.28

Further lines, results first:

IC90 [µM] | Compound
0.12 | CCc1cc(Nc2nccn3c(-c4ccc(OC)c(F)c4F)cnc23)ccc1C(=O)NCCN(C)CCN [Example 168, N-[2-[2-aminoethyl (methyl)amino]ethyl]-4-[[3-(2,3-difluoro-4-methoxyphenyl)imidazo[1,2-a]pyrazin-8-yl]amino]-2-ethylbenzamide; hydrochloride]
0.13 | CCc1cc(Nc2nccn3c(-c4ccc(OC)c(F)c4F)cnc23)ccc1C(=O)NCCOCCN(C)C [Example 169, 4-[[3-(2,3-difluoro-4-methoxyphenyl)imidazo[1,2-a]pyrazin-8-yl]amino]-N-[2-[2-(dimethylamino)ethoxy]ethyl]-2-ethylbenzamide]
0.29 | COc1ccc(-c2cnc3c(Nc4ccc5c(c4)CCN(CCOCCN)C5=O)nccn23)c(F)c1F [Example 171, 2-[2-(2-aminoethoxy)ethyl]-6-[[3-(2,3-difluoro-4-methoxyphenyl)imidazo[1,2-a]pyrazin-8-yl]amino]-3,4-dihydroiso-quinolin-1-one;2,2,2-trifluoroacetic acid]
0.31 | CCc1cc(Nc2nccn3c(-c4ccc(OCC(=O)OC)c(F)c4F)cnc23)ccc1C(=O)NCCOCCN [Example 172, formic acid; methyl 2-[4-[8-[4-[2-(2-aminoethoxy)ethylcarbamoyl]-3-ethylanilino]imidazo[1,2-a]pyrazin-3-yl]-2,3-difluorophenoxy] acetate]
1.1 | CN(CCOCCN1CCC(C(=O)O)CC1)C(=O)c1ccc(Nc2nccn3c(-c4ccc(OCC#N)c(F)c4F)cnc23)cc1Cl [Example 175, 1-[2-[2-[[2-chloro-4-[[3-[4-(cyanomethoxy)-2,3-difluorophenyl]imidazo[1,2-a]pyrazin-8-yl]amino]benzoyl]-methylamino]ethoxy]ethyl] piperidine-4-carboxylic acid; formic acid]
1.2 | CN(CCOCCN1CCCC(C(=O)O)C1)C(=O)c1ccc(Nc2nccn3c(-c4ccc(OCC#N)c(F)c4F)cnc23)cc1Cl (centres unmarked) [Example 176, 1-[2-[2-[[2-chloro-4-[[3-[4-(cyanomethoxy)-2,3-difluorophenyl]imidazo[1,2-a]pyrazin-8-yl]amino]benzoyl]-methylamino]ethoxy]ethyl] piperidine-3-carboxylic acid; formic acid]
2.3 | N#CCOc1ccc(-c2cnc3c(Nc4ccc(C(=O)NCCOCCN5CCNC(C(=O)O)C5)c(Cl)c4)nccn23)c(F)c1F (centres unmarked) [Example 177, 4-[2-[2-[[2-chloro-4-[[3-[4-(cyanomethoxy)-2,3-difluorophenyl]imidazo[1,2-a]pyrazin-8-yl]amino]benzoyl]amino]ethoxy]ethyl]piperazine-2-carboxylic acid; formic acid]
1.1 | COc1ccc(-c2cnc3c(Nc4ccc(C(=O)NCCCNCC[C@H](N)C(=O)O)c(C)c4)nccn23)c(F)c1F [Example 187, (2S)-2-amino-4-[3-[[4-[[3-(2,3-difluoro-4-methoxyphenyl)imidazo[1,2-a]pyrazin-8-yl]amino]-2-methyl-benzoyl]amino]propylamino] butanoic acid]
2.4 | COc1ccc(-c2cnc3c(Nc4ccc(C(=O)NCCNCCC[C@H](N)C(=O)O)c(C)c4)nccn23)c(F)c1F [Example 189, (2S)-2-amino-5-[2-[[4-[[3-(2,3-difluoro-4-methoxyphenyl)imidazo[1,2-a]pyrazin-8-yl]amino]-2-methyl-benzoyl]amino]ethylamino] pentanoic acid]
0.49 | C#CCOc1ccc(-c2cnc3c(Nc4ccc(C(=O)NCCNCCO)c(CC)c4)nccn23)c(F)c1F [Example 195, 4-[[3-(2,3-difluoro-4-prop-2-ynoxy-phenyl)imidazo[1,2-a]pyrazin-8-yl]amino]-2-ethyl-N-[2-(2-hydroxyethyl-amino)ethyl] benzamide]
0.29 | CCc1cc(Nc2nccn3c(-c4ccc(OC)c(F)c4F)cnc23)ccc1C(=O)NCCNCCO [Example 196, 4-((3-(2,3-difluoro-4-methoxyphenyl)imidazo[1,2-a]pyrazin-8-yl)amino)-2-ethyl-N-(2-((2-hydroxyethyl)amino)ethyl) benzamide hydrochloride]
0.37 | CCc1cc(Nc2nccn3c(-c4ccc(OC)c(F)c4F)cnc23)ccc1C(=O)NCCCCNCC(=O)O [Example 197, (4-(4-((3-(2,3-difluoro-4-methoxyphenyl)imidazo[1,2-a]pyrazin-8-yl)amino)-2-ethylbenzamido)butyl)glycine hydrochloride]

Same assay, conditions: Acinetobacter baumannii, ATCC17978, 16 h, read-out: ATCC 17978 IC90

Compound | IC90 [µM]
CCc1cc(Nc2nccn3c(-c4ccc(OC(F)F)c(F)c4F)cnc23)ccc1C(=O)NCCOCCO[C@H]1O[C@H](CO)[C@H](O)[C@H](O)[C@H]1O [Example 194, 4-((3-(4-(difluoro-methoxy)-2,3-difluorophenyl)imidazo[1,2-a]pyrazin-8-yl)amino)-2-ethyl-N-(2-(2-(((2S,3R, 4S,5R,6R)-3,4,5-trihydroxy-6-(hydroxymethyl)tetrahydro-2H-pyran-2-yl)oxy)ethoxy)ethyl) benzamide formate] | 0.35

Tested on: Acinetobacter baumannii ATCC17961
Experiment: as above
Type: cell-based
Conditions: 90% growth inhibitory concentration, Acinetobacter baumannii ATCC17961, Iso-Sensitest broth, OD 600 nm over 16 h; read-out: ATCC 17961 IC90
How it was run: as §1

IC90 [µM] | Compound
2.79 | CCc1cc(Nc2nccn3c(-c4ccc(OC)cc4S(=O)(=O)NC)cnc23)ccc1C(=O)NCCOCCN [Example 55, N-[2-(2-aminoethoxy)ethyl]-2-ethyl-4-[[3-[4-methoxy-2-(methylsulfamoyl)phenyl]imidazo[1,2-a]pyrazin-8-yl]amino]benzamide; formic acid]

Same assay, conditions: Acinetobacter baumannii, ATCC17961, 16 h, read-out: ATCC 17961 IC90

Compound | IC90 [µM]
CCc1cc(Nc2nccn3c(-c4ccc(OC)cc4C(F)(F)F)cnc23)ccc1C(=O)NCCOCCN [Example 56, N-(2-(2-aminoethoxy)ethyl)-2-ethyl-4-((3-(4-methoxy-2-(trifluoromethyl)phenyl)imidazo[1,2-a]pyrazin-8-yl)amino)benzamide hydrochloride] | 0.08
COc1ccc(-c2cnc3c(Nc4ccc(C(=O)NCCOCCN)c(C)c4F)nccn23)c(F)c1F [Example 61, dihydrochloride] | 0.14
